Values quoted from earlier work, collected in patent US20220160619A1, “Effervescent Drug Formulations” (Complete Medical Solutions, LLC, priority 2020, published 2022).

Details: long-term metformin therapy in addition to dietary management

**Q.** With CN(C)C(=N)N=C(N)N [metformin] as the molecule, how does the “diabetic patients with cobalamin malabsorption” value read?
**A.** The value was 30%.
